# Biological target: T1, Forkhead box protein M1 [235-327] (Human, UniProt Q08050)
# T1 construct: 235-327
# T1 sequence (Q08050 whole entry): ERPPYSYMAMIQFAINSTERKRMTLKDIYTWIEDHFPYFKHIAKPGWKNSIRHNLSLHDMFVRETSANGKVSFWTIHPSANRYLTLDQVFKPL
# Test: Fluorescence-based Affinity Assay
# Protocol: The fluorescence emission spectra of tryptophan residues were used to monitor the changes in local chemical environment of protein upon ligand binding [Zhu et al., Bioorg. Chem., 68:259-265; Tyler et al., Biochemistry, 49:951-957]. The protein concentration was kept at a constant. Changes in fluorescence were measured upon titration of tested compound to protein solution. Fluorescence was measured by a PE fluorescence spectrophotometer.
row,SMILES,Kd
1,CC1=C(C(=O)OC(C)C)C(c2ccc([N+](=O)[O-])cc2)NC(=S)N1 (stereo unspecified) [CID 2748293],17 µM
2,COc1ccccc1C(=O)C(CCC(=O)O)c1ccccc1OC (stereo unspecified) [CID 2748371],26 µM
3,O=c1[nH]nc(-c2ccccc2)c(=S)n1-c1ccc(F)c(Cl)c1 [CID 2751638],120 µM
4,N=c1sc(C(=O)c2cccs2)nn1-c1ccccc1 [CID 2753793],3.8 µM
5,CCC[C@H]1C(=O)N[C@]2(C(=O)O[C@@H]2[C@H]2C=CCCC2)[C@@]1(C)O [CID 50943806],230 µM
6,Cc1cccc2c(/C=C/C(=O)O)cc(C(C)C)c(O)c12 [CID 53708511],56 µM

# Reference: BindingDB's records for doi:10.1016/j.bioorg.2016.11.003 (Linyi People's Hospital, 2017)
